In US5686486A, “4-hydroxy-benzopyran-2-ones and 4-hydroxy-cycloalkyl[b]pyran-2-ones useful to treat retroviral infections” (priority 1995, dated 1997):
Read-outs that look alike come from different tables or passages of the source.

Target: HIV-1 protease (Human immunodeficiency virus type 1 group M subtype B, UniProt P04585)
Assay: biochemical
Procedure, shortened: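 Biotinylated, FITC-labeled peptide substrate (20 μl of 0.2 μM) incubated with HIV-1 protease (10 μl of 0.1 μM) and compound in 0.1 M sodium acetate pH 5.5, 1.0 M NaCl, 0.05% NP-40, 1 h, room temperature, dark. Streptavidin beads then capture uncleaved substrate; filtered labeled product read by fluorescence, giving percent inhibition.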

[1] = read-out: HIV-1 Protease % Inhib, dose 0.123 uM
[2] = read-out: HIV-1 Protease % Inhib, dose 0.370 uM
[3] = read-out: HIV-1 Protease % Inhib, dose 1.100 uM
[4] = read-out: HIV-1 Protease % Inhib, dose 3.300 uM
[5] = read-out: HIV-1 Protease % Inhib, dose 10.000 uM
[6] = read-out: HIV-1 Protease % Inhib, dose 30.000 uM
[7] = dose 1.100 uM, read-out: HIV-1 Protease % Inhib
[8] = dose 3.300 uM, read-out: HIV-1 Protease % Inhib
[9] = dose 10.000 uM, read-out: HIV-1 Protease % Inhib
[10] = dose 30.000 uM, read-out: HIV-1 Protease % Inhib
[11] = dose 0.370 uM, read-out: HIV-1 Protease % Inhib

Row | Compound | inhibition at 1.1 µM [7] [%] | inhibition at 3.3 µM [8] [%] | inhibition at 10 µM [9] [%] | inhibition at 30 µM [10] [%] | inhibition at 0.123 µM [1] [%] | inhibition at 0.37 µM [2] [%] | inhibition at 1.1 µM [3] [%] | inhibition at 3.3 µM [4] [%] | inhibition at 10 µM [5] [%] | inhibition at 30 µM [6] [%] | further results
1 | CC(C)c1ccc(S(=O)(=O)Nc2cccc(C(c3c(O)c4c(oc3=O)CCCCCC4)C3CC3)c2)cc1 (centres unmarked) [Example 345, N-[3-[Cyclopropyl(5,6,7,8,9,10-hexahydro-4-hydroxy-2-oxo-2H-cycloocta[b]pyran-3-yl)methyl]phenyl]-4-(1-methylethyl)-benzenesulfonamide] | – | – | – | – | 50 | 77 | 90.4 | 101 | 105 | 91.8 | –
2 | Nc1ccc(S(=O)(=O)Nc2cccc(C(c3c(O)c4c(oc3=O)CCCCCC4)C3CC3)c2)cc1 (centres unmarked) [Example 348 (First Title Compound), 4-Amino-N-[3-[cyclopropyl(5,6,7,8,9,10-hexahydro-4-hydroxy-2-oxo-2H-cycloocta[b]pyran-3-yl)methyl]phenyl]-benzenesulfonamide] | – | – | – | – | 28.1 | 80.7 | 103 | 108 | 113 | 109 | –
3 | CCS(=O)(=O)Nc1cccc(C(c2c(O)c3c(oc2=O)CCCCC3)C2CC2)c1 (centres unmarked) [Example 365, N-[3-[Cyclopropyl(2,5,6,7,8,9-hexahydro-4-hydroxy-2-oxocyclohepta[b]pyran-3-yl)methyl]phenyl]-ethanesulfonamide] | – | – | – | – | 11.7 | 31.1 | 65.3 | 84.1 | 94.5 | 95.8 | –
4 | O=c1oc2c(c(O)c1C(c1cccc(N3CCCS3(=O)=O)c1)C1CC1)CCCCCC2 [Example 365B (First Title Compound), 2H-Cycloocta[b]pyran-2-one, 3-[cyclopropyl[3-(2-isothiazolidinyl)phenyl]methyl]-5,6,7,8,9,10-hexahydro-4-hydroxy-,S,S-dioxide] | – | – | 83.8 | 78.8 | – | – | – | – | – | – | –
5 | O=c1oc2c(c(O)c1C(c1cccc(NS(=O)(=O)CCCN3CCOCC3)c1)C1CC1)CCCCCC2 (centres unmarked) [Example 365B (Second Title Compound), N-[3-[Cyclopropyl(5,6,7,8,9,10-hexahydro-4-hydroxy-2-oxo-2H-cycloocta[b]pyran-3-yl)methyl]phenyl]-4-morpholinepropanesulfonamide] | 94 | 87.3 | 92.6 | 89.1 | – | – | – | – | – | – | inhibition at 0.123 µM (dose 0.123 uM, read-out: HIV-1 Protease % Inhib): 33.2%; inhibition at 0.37 µM [11]: 68.2%
6 | CC(C)C(c1cccc(NS(=O)(=O)c2ccc(C#N)cc2)c1)c1c(O)c2c(oc1=O)CCCCCC2 (centres unmarked) [Example 372, 4-Cyano-N-[3-[1-(6,7,8,9,10-hexahydro-4-hydroxy-2-oxo-2H-cycloocta[b]pyran-3-yl)-2-methylpropyl]phenyl]-benzenesulfonamide] | – | – | – | – | 65.3 | 91.3 | 105 | 108 | 109 | 106 | –
7 | CCCCOc1ccc(S(=O)(=O)Nc2cccc(C(c3c(O)c4c(oc3=O)CCCCCC4)C3CC3)c2)cc1 (centres unmarked) [Example 406, 4-Butoxy-N-[3-[cyclopropyl(5,6,7,8,9,10-hexahydro-4-hydroxy-2-oxo-2H-cycloocta[b]pyran-3-yl)methyl]phenyl]-benzenesulfonamide] | – | – | – | – | 37.1 | 69.4 | – | – | – | – | HIV-1 Protease % Inhib (dose 1.100 uM): 87.61%; HIV-1 Protease % Inhib (dose 3.300 uM): 85.17%; HIV-1 Protease % Inhib (dose 10.000 uM): 97.39%; HIV-1 Protease % Inhib (dose 30.000 uM): 97.21%
8 | O=c1oc2c(c(O)c1C(c1cccc(NS(=O)(=O)c3ccc(Cl)c(Cl)c3Cl)c1)C1CC1)CCCCCC2 (centres unmarked) [Example 410, 2,3,4-Trichloro-N-[3-[cyclopropyl(5,6,7,8,9,10-hexahydro-4-hydroxy-2-oxo-2H-cycloocta[b]pyran-3-yl)methyl]phenyl]-benzenesulfonamide] | – | – | – | – | 49.5 | 79.7 | 91.4 | 90.9 | 96.8 | 98.3 | –
9 | CC(C)C(c1cccc(NS(=O)(=O)c2cccc3cccnc23)c1)c1c(O)c2c(oc1=O)CCCCCC2 (centres unmarked) [Example 416, 8-Quinolinesulfonamide, N-[3-[1-(5,6,7,8,9,10-hexahydro4-hydroxy-2-oxo-2H-cycloocta[b]pyran-3-yl)-2-methylpropyl]phenyl]-] | – | – | – | – | 50.9 | 88 | 102 | 99.7 | 98.6 | 97.8 | –
10 | CC(C)C(c1cccc(NS(=O)(=O)c2cccnc2)c1)c1c(O)c2c(oc1=O)CCCCCC2 (centres unmarked) [Example 417, 3-Pyridinesulfonamide, N-[3-[1-(5,6,7,8,9,10-hexahydro4-hydroxy-2-oxo-2H-cycloocta[b]pyran-3-yl)-2-methylpropyl]phenyl]-] | – | – | – | – | 36.4 | 65.9 | 89.2 | 95.1 | 102 | 97.3 | –
11 | CC(C)C(c1cccc(NS(=O)(=O)c2ccc(F)cc2)c1)c1c(O)c2c(oc1=O)CCCCCC2 (centres unmarked) [Example 418, Benzenesulfonamide, N-[3-[1-(5,6,7,8,9,10-hexahydro-4-hydroxy-2-oxo-2H-cycloocta[b]pyran-3-yl)-2-methylpropyl]phenyl]4-fluoro-] | – | – | – | – | 81.8 | 87.5 | 98.6 | 110 | 119 | 123 | –

The next lines start with results.

Row | inhibition at 1.1 µM [7] [%] | inhibition at 3.3 µM [8] [%] | inhibition at 10 µM [9] [%] | inhibition at 30 µM [10] [%] | Compound | inhibition at 0.123 µM [1] [%] | inhibition at 0.37 µM [2] [%] | inhibition at 1.1 µM [3] [%] | inhibition at 3.3 µM [4] [%] | inhibition at 10 µM [5] [%] | inhibition at 30 µM [6] [%] | further results
12 | 21.5 | 58.8 | 84.8 | 107 | C=CS(=O)(=O)Nc1cccc(C(c2c(O)c3c(oc2=O)CCCCC3)C2CC2)c1 (centres unmarked) [Example 363, N-[3-[Cyclopropyl(2,5,6,7,8,9-hexahydro-4-hydroxy-2-oxocyclohepta[b]pyran-3-yl)methyl]phenyl]-ethenesulfonamide] | – | – | – | – | – | – | –
13 | 40.3 | 72.9 | 92.2 | 107 | O=c1oc2c(c(O)c1C(c1cccc(NC(=S)Nc3ccccc3)c1)C1CC1)CCCCCC2 (centres unmarked) [Example 366, Thiourea, N-[3-[cyclopropyl(5,6,7,8,9,10-hexahydro-4-hydroxy-2-oxo-2H-cycloocta[b]pyran-3-yl)methyl]phenyl]-N'-phenyl-] | – | – | – | – | – | – | –
14 | 23.7 | 58.5 | 86.1 | 102 | CCNC(=S)Nc1cccc(C(c2c(O)c3c(oc2=O)CCCCCC3)C2CC2)c1 (centres unmarked) [Example 367, Thiourea, N-[3-[cyclopropyl(5,6,7,8,9,10-hexahydro-4-hydroxy-2-oxo-2H-cycloocta[b]pyran-3-yl)methyl]phenyl]-N'-ethyl-] | – | – | – | – | – | – | –
15 | 17.4 | 54.5 | 77.8 | 86.8 | O=c1oc2c(c(O)c1C(c1cccc(NC(=S)Cc3ccccc3)c1)C1CC1)CCCCCC2 (centres unmarked) [Example 368, Benzeneethanethioamide, N-[3-[cyclopropyl(5,6,7,8,9,10-hexahydro-4-hydroxy-2-oxo-2H-cycloocta[b]pyran-3-yl)methyl]phenyl]-] | – | – | – | – | – | – | –
16 | – | – | 19.4 | 33.1 | CC(C)C(c1cccc(NC(=O)OCc2ccccc2)c1)c1c(O)c2c(oc1=O)CCCCCC2 (centres unmarked) [Example 370, [3-[1-(5,6,7,8,9,10-Hexahydro-4-hydroxy-2-oxo-2H-cycloocta[b]pyran-3-yl)-2-methylpropyl]phenyl]-carbamic acid, phenylmethyl ester] | – | – | – | – | – | – | –
17 | 28.5 | 57.4 | 79 | 86 | CCCC(c1cccc(NC(=O)OCc2ccccc2)c1)c1c(O)c2c(oc1=O)CCCCCC2 (centres unmarked) [Example 375, [3-[1-(5,6,7,8,9,10-Hexahydro-4-hydroxy-2-oxo-2H-cycloocta[b]pyran-3-yl)butyl]phenyl]-carbamic acid, phenylmethyl ester] | – | – | – | – | – | – | inhibition at 0.37 µM [11]: 10.2%
18 | 28.9 | 73 | 90.2 | 94.6 | O=c1oc2c(c(O)c1C(c1ccc(CO)o1)C1CC1)CCCCCC2 (centres unmarked) [Example 383] | – | – | – | – | – | – | –
19 | 14.3 | 35.4 | 64.5 | 96.3 | COCOCc1ccc(C(c2c(O)c3c(oc2=O)CCCCCC3)C2CC2)o1 (centres unmarked) [Example 386] | – | – | – | – | – | – | –
20 | 13.1 | 43.6 | 66.4 | 85.2 | O=c1oc2c(c(O)c1C(c1ccc(CNS(=O)(=O)c3ccc(F)cc3)o1)C1CC1)CCCCCC2 (centres unmarked) [Example 390] | – | – | – | – | – | – | –
21 | – | 28.3 | 59.1 | 84.2 | N#Cc1ccc(S(=O)(=O)NCc2ccc(C(c3c(O)c4c(oc3=O)CCCCCC4)C3CC3)o2)cc1 (centres unmarked) [Example 391] | – | – | – | – | – | – | –
22 | 11.5 | 47 | 77.6 | 99.7 | N#Cc1ccc(S(=O)(=O)NCc2ccc(C(c3c(O)c4c(oc3=O)CCCCCC4)C3CC3)s2)cc1 (centres unmarked) [Example 392] | – | – | – | – | – | – | –
23 | – | 37.5 | 66.3 | 89.8 | O=c1oc2c(c(O)c1C(c1ccc(CNS(=O)(=O)c3ccc(F)cc3)s1)C1CC1)CCCCCC2 (centres unmarked) [Example 393] | – | – | – | – | – | – | –
